Laboratory results as given in patent US9278978B2, “6-Alkynyl Pyridine” (Boehringer Ingelheim International GmbH, priority 2013, dated 2016).

Target: cIAP1 BIR3 (Homo sapiens (Human), UniProt Q13490)
Assay: cIAP1 BIR3 binding assay (DELFIA), BIR3 domain-SMAC peptide interaction
Conditions: BIR3 domain 10 nM, SMAC peptide 10 nM; (S)-isomer (examples 1-34, 38-43) or racemate (examples 35-37); read-out: cIAP1 BIR-3 IC50
Protocol: XIAP BIR3 and cIAP1 BIR3 Binding Assays (DELFIA)
Peptide […]-Lys(Biotin), representing the N-terminus of mature human SMAC(SMAC peptide), was used as interaction partner in the protein-peptide interaction assay.
BIR3 domains (10 nM) were incubated with SMAC peptide (10 nM) in assay buffer (50 mM Tris, 120 mM NaCl, 0.1% BSA, 1 mM DTT, 0.05% TritonX100) for one hour at room temperature in the presence of inhibitory compounds. The assay mixture was transferred to a strepatvidin coated plate and incubated for one hour at room temperature to allow binding of the biotinylated peptide and associated BIR3 domains to the plate. After several washing steps Eu labeled anti-GST antibody (e.g. Perkin Elmer DELFIA Eu-N1-antiGST AD0250) was added to detect BIR3 domain-SMAC peptide interactions according to Perkin Elmer's instructions. […] Time resolved Europium fluorescence was measured in a Wallac Victor using Standard assay settings.
DELFIA assay results were plotted against compound concentrations and Software GraphPad Prizm was used to calculate half maximal inhibitory concentrations (IC50 values).

Q: How did the IC50 turn out when `CNC(C)C(=O)Nc1cc(-c2ccc(OC)nc2)cc(C#Cc2ccccc2)n1` (stereo not drawn) [Example 31, N-[4-(6-methoxypyridin-3-yl)-6-(2-phenylethynyl)pyridin-2-yl]-2-(methylamino)propanamide] was run?
A: 325 nM

Q: Which IC50 does the source give for `CNC(C)C(=O)Nc1cc(-c2ccccc2F)cc(C#Cc2ccccc2)n1` (stereo not drawn) [Example 32, N-[4-(2-fluorophenyl)-6-(2-phenylethynyl)pyridin-2-yl]-2-(methylamino)propanamide] here?
A: 4010 nM

Q: With `CNC(C)C(=O)Nc1cc(-c2cccnc2)cc(C#Cc2ccccc2)n1` (stereo not drawn) [Example 34, 2-(methylamino)-N-[6-(2-phenyethynyl)-4-(pyridin-3-yl)pyridin-2-yl]propanamide] as the molecule, how does the IC50 read?
A: 250 nM

Q: `CNC(C)C(=O)Nc1cc(-c2ncnc3c(C)nn(C)c23)cc(C#Cc2ccc3nc(C)ccc3c2)n1` (stereo not drawn) [Example 38, N-(4-{1,3-dimethyl-1H-pyrazolo[4,3-d]pyrimidin-7-yl}-6-[2-(2-methylquinolin-6-yl)ethynyl]pyridin-2-yl)-2-(methylamino)propanamide] was tested. Which IC50 did it give?
A: 1 nM

Q: Which IC50 does the source give for `CNC(C)C(=O)Nc1cc(-c2ncnc3c(C)nn(C)c23)cc(C#Cc2cc(C)nc(C)c2)n1` (stereo not drawn) [Example 39, N-(4-{1,3-dimethyl-1H-pyrazolo[4,3-d]pyrimidin-7-yl}-6-[2-(2,6-dimethyl-pyridin-4-yl)ethynyl]pyridin-2-yl)-2-(methylamino)-propanamide] here?
A: 1 nM

Q: How did the IC50 turn out when `CNC(C)C(=O)Nc1cc(-c2ncnc3c(C)nn(C)c23)cc(C#Cc2cc(F)cc(F)c2)n1` (stereo not drawn) [Example 40, N-{6-[2-(3,5-difluorophenyl)ethynyl]-4-{1,3-dimethyl-1H-pyrazolo[4,3-d]pyrimidin-7-yl}pyridin-2-yl}-2-(methyl-amino)propanamide] was run?
A: 1 nM

Q: For `CNC(C)C(=O)Nc1cc(-c2ncnc3c(C)nn(C)c23)cc(C#Cc2ccc(-n3cnc(C)c3)cc2)n1` (stereo not drawn) [Example 41, N-(4-{1,3-dimethyl-1H-pyrazolo[4,3-d]pyrimidin-7-yl}-6-{2-[4-(4-methyl-1H-imidazol-1-yl)phenyl]-ethynyl}pyridin-2-yl)-2-(methylamino)propanamide], which IC50 is on record?
A: 1 nM

Q: Which IC50 does the source give for `CNC(C)C(=O)Nc1cc(-c2ncnc3c(C)nn(C)c23)cc(C#Cc2cc(F)c3ncccc3c2)n1` (stereo not drawn) [Example 42, N-(4-{1,3-dimethyl-1H-pyrazolo[4,3-d]pyrimidin-7-yl}-6-[2-(8-fluoroquinolin-6-yl)ethynyl]pyridin-2-yl)-2-(methylamino)propanamide] here?
A: 1 nM

Q: How did the IC50 turn out when `CNC(C)C(=O)Nc1cc(-c2ncnc3c(C)nn(C)c23)cc(C#Cc2cnc3c(cnn3C)c2)n1` (stereo not drawn) [Example 43, N-(4-{1,3-dimethyl-1H-pyrazolo[4,3-d]pyrimidin-7-yl}-6-(2-{1-methyl-1H-pyrazolo[3,4-b]pyridin-5-yl}ethynyl)pyridin-2-yl)-2-(methylamino)propanamide] was run?
A: 1 nM
